Experimental data as given in patent publication US20080293712A1, “Benzo[C][2,7]Naphtyridine Derivatives, Methods of Making Thereof and Methods of Use Thereof” (WYETH, priority 2007, published 2008).
Where two headings read alike, the source gives them in different places.

Columns and labels:
Format in all cases: biochemical
S6K = S6K (Homo sapiens, UniProt P23443); experiment: S6K kinase inhibition, Z'-LYTE FRET assay; conditions: 100 μM ATP
Description: (§1) The ability of illustrative Benzo[c][2,7]naphthyridine Derivatives to inhibit PKA, Akt1, S6K in vitro can be determined using a Fluorescence Resonance Energy Transfer (FRET) assay, such as a Z′-LYTE™ Kinase Assay Platform, commercially available from Invitrogen (c.f. Rodems et al., ASSAY Drug Devel. Technol. 1:9-19 (2002) and Zhang et al., J. Biomol. Screen. 4:67-73 (1999)). Z′-Lyte™ assay is an in vitro FRET-based assay that utilizes differential sensitivity of phosphorylated and non-phosphorylated peptides to proteolytic cleavage. The peptide substrate (also available from Invitrogen for each of PKA, Akt1 and S6K) is labeled with two different fluorophores, a fluorescence donor at one end of the peptide and a fluorescence acceptor at the other end of the peptide. In the primary kinase reaction, the kinase phosphorylates the peptide substrate in the presence of ATP. In the secondary reaction, a site-specific protease recognizes and cleaves non-phosphorylated peptides, but not phosphorylated peptides. Cleavage disrupts FRET between the donor and acceptor fluorophores on the peptide, whereas uncleaved phosphorylated peptides maintain FRET. Based on a formula that uses the ratio of donor emission (at 460 nm) to acceptor emission (at […]) after excitation of the donor fluorophore at 400 nm, the extent of phosphorylation of the peptide substrates is calculated. IC50 values of illustrative Benzo[c][2,7]naphthyridine Derivatives, shown in Table 12, are calculated using LSW Data Analysis package add-in for Excel (Microsoft).

PDK-1 = biological target: T1, PDK-1 (Homo sapiens, UniProt O15530); experiment: PDK-1 kinase inhibition ELISA assay (phosphorylation of His6-tagged SGK1 S422D by PDK-1)
T1 sequence (O15530 1-556): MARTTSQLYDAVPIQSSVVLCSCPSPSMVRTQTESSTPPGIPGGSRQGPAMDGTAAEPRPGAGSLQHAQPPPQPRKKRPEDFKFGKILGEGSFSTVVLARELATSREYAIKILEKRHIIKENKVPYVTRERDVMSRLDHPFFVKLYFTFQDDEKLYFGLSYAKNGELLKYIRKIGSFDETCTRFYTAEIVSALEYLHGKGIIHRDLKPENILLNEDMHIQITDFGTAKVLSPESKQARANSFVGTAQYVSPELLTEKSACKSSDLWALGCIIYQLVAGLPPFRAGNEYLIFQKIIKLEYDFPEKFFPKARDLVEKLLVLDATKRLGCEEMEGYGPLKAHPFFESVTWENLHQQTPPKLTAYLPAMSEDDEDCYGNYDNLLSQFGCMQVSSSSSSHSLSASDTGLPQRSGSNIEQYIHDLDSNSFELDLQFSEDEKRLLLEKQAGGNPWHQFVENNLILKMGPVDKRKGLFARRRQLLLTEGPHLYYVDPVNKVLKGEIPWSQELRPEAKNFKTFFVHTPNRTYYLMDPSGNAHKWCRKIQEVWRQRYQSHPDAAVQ

PKA = PKA (Homo sapiens, UniProt P17612); experiment: PKA kinase inhibition, Z'-LYTE FRET assay
Akt1 = Akt1 (Homo sapiens, UniProt P31749); experiment: Akt1 kinase inhibition, Z'-LYTE FRET assay; conditions: 100 μM ATP
Sequence of Akt1 (P31749 whole entry, species assumed): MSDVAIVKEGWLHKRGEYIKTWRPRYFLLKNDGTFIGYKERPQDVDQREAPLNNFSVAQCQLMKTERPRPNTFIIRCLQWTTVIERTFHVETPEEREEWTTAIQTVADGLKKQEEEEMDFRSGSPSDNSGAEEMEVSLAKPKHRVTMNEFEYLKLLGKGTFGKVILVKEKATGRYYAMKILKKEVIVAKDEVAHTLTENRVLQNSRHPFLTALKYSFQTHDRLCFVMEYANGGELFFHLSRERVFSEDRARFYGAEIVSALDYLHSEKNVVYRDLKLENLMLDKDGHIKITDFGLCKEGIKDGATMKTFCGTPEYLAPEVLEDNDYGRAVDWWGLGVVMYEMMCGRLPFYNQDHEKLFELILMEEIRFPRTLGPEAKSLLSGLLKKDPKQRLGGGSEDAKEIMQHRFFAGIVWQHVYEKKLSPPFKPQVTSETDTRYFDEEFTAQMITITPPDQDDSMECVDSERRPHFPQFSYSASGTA
Description: as §1

[1] = PDK-1 ELISA, Table 11, read-out: Average IC50

Sequence of S6K (P23443 whole entry): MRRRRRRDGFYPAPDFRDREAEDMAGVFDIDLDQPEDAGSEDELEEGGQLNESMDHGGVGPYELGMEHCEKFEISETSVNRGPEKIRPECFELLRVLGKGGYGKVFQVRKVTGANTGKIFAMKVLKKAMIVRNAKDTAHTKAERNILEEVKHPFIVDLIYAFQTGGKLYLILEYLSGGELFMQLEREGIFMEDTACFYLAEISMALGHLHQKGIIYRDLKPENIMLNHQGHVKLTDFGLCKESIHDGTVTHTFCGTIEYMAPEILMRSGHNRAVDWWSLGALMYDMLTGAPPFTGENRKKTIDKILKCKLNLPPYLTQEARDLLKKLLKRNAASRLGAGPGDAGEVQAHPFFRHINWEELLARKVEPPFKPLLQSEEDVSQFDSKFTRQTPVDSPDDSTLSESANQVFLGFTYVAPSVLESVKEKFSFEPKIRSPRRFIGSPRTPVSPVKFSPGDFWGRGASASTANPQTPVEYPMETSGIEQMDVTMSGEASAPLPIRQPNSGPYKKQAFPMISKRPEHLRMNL

Row | SMILES | IC50 (S6K) [nM] | IC50 (PDK-1; [1]) [nM] | IC50 (PKA; 100 μM ATP) [nM] | IC50 (PDK-1) [nM] | IC50 (PKA; 20 μM ATP) [nM] | IC50 (Akt1) [nM]
1 | COc1cc2ncc3c(N)nc(-c4cncc(OC[C@H](N)Cc5cccc(C(F)(F)F)c5)c4)cc3c2cc1OC [Ib-28, 2-[5-({(2R)-2-amino-3-[3-(trifluoromethyl)phenyl]propyl}oxy)pyridin-3-yl]-8,9-dimethoxybenzo[c]-2,7-naphthyridin-4-amine] | 763 | 21 |  |  |  | 
2 | COc1cc2ncc3c(N)nc(-c4cncc(OC5CCNCC5)c4)cc3c2cc1OC [Ib-40, 8,9-Dimethoxy-2-[5-(piperidin-4-yloxy)pyridin-3-yl]benzo[c]-2,7-naphthyridin-4-amine] | > 2000 | 117 | > 2000 |  | > 4000 | 
3 | COc1cc2ncc3c(N)nc(-c4cncc(OC[C@@H](N)Cc5ccc(F)cc5)c4)cc3c2cc1OCc1ccccc1 [Ia-1, 2-(5-{[(2S)-2-Amino-3-(4-fluorophenyl)propyl]oxy}pyridin-3-yl)-9-(benzyloxy)-8-methoxybenzo[c]-2,7-naphthyridin-4-amine] | > 2000 | > 100 | > 2000 |  |  | 
4 | COc1cc2ncc3c(N)nc(-c4cncc(O[C@H]5CCCNC5)c4)cc3c2cc1OC [Ib-39, 8,9-dimethoxy-2-{5-[(3S)-piperidin-3-yloxy]pyridin-3-yl}benzo[c]-2,7-naphthyridin-4-amine] | ≥ 1700 | 84 | > 2000 |  | > 4000 | 
5 | COc1cc2ncc3c(N)nc(-c4cncc(OC[C@@H]5CN(c6cccc(F)c6)C(=O)N5)c4)cc3c2cc1OC [Ib-35, (4S)-4-({[5-(4-amino-8,9-dimethoxybenzo[c]-2,7-naphthyridin-2-yl)pyridin-3-yl]oxy}methyl)-1-(3-fluorophenyl)imidazolidin-2-one] | ≥ 1740 | 206 | > 2000 |  | > 4000 | 
6 | COc1cc2ncc3c(N)nc(-c4cncc(OC[C@@H](N)CN5CCNC(=O)C5)c4)cc3c2cc1OC [Ib-37, 4-((2S)-2-amino-3-{[5-(4-amino-8,9-dimethoxybenzo[c]-2,7-naphthyridin-2-yl)pyridin-3-yl]oxy}propyl)piperazin-2-one] | 523 to 821 | 18 | > 2000 |  | 850 | 
7 | COc1cc2ncc3c(N)nc(-c4cncc(OC[C@@H](N)CN5CCOCC5)c4)cc3c2cc1OC [Ib-45, 2-(5-{[(2S)-2-amino-3-morpholin-4-ylpropyl]oxy}pyridin-3-yl)-8,9-dimethoxybenzo[c]-2,7-naphthyridin-4-amine] | 725 | 25 | > 2000 |  | 650 | 
8 | COc1cc2ncc3c(N)nc(-c4cncc(OC[C@@H](N)Cc5ccc(NC(=O)OCc6ccccc6)cc5)c4)cc3c2cc1OC [Ib-23] | > 2000 | > 100 | > 2000 |  |  | 
9 | CCOc1cc2ncc3c(N)nc(-c4cccnc4)cc3c2cc1OCC [Ia-46, 8,9-Diethoxy-2-pyridin-3-ylbenzo[c]-2,7-naphthyridin-4-amine] |  |  |  | 74 | > 20000 | 200

Results, then the molecule that gave them:

Row | IC50 (S6K) [nM] | IC50 (PDK-1; [1]) [nM] | IC50 (PKA; 100 μM ATP) [nM] | IC50 (PDK-1) [nM] | IC50 (PKA; 20 μM ATP) [nM] | IC50 (Akt1) [nM] | SMILES
10 | 235 | 6 |  |  |  |  | COc1cc2ncc3c(N)nc(-c4cncc(OC[C@H](C)N)c4)cc3c2cc1OC [Ib-31, 2-(5-{[(2S)-2-aminopropyl]oxy}pyridin-3-yl)-8,9-dimethoxybenzo[c]-2,7-naphthyridin-4-amine]
11 | 542 |  | > 2000 | 43 |  |  | COCCOc1cc2ncc3c(N)nc(-c4cccnc4)cc3c2cc1OC [Ia-2, 9-Methoxy-8-(2-methoxyethoxy)-2-pyridin-3-ylbenzo[c]-2,7-naphthyridin-4-amine]
12 | 138 | 8 | 368 |  |  |  | COc1cc2ncc3c(N)nc(-c4cncc(O[C@@H]5CCCNC5)c4)cc3c2cc1OC [Ib-33, 8,9-dimethoxy-2-{5-[(3R)-piperidin-3-yloxy]pyridin-3-yl}benzo[c]-2,7-naphthyridin-4-amine]
13 | 21 to 102 | 3 | 183 |  | < 32 |  | COc1cc2ncc3c(N)nc(-c4cncc(OC[C@@H](N)Cc5ccc(F)cc5)c4)cc3c2cc1OC [Ib-41, 2-(5-{[(2S)-2-amino-3-(4-fluorophenyl)propyl]oxy}pyridin-3-yl)-8,9-dimethoxybenzo[c]-2,7-naphthyridin-4-amine]
14 | 76 | 8 |  |  |  |  | COc1cc2ncc3c(N)nc(-c4cncc(OC[C@@H](N)Cc5cccc(Cl)c5)c4)cc3c2cc1OC [Ib-29, 2-(5-{[(2S)-2-amino-3-(3-chlorophenyl)propyl]oxy}pyridin-3-yl)-8,9-dimethoxybenzo[c]-2,7-naphthyridin-4-amine]
15 | 19 | 6 |  |  | < 32 |  | COc1cc2ncc3c(N)nc(-c4cncc(OC[C@@H](N)Cc5ccc(Cl)c(Cl)c5)c4)cc3c2cc1OC [Ib-44, 2-(5-{[(2S)-2-amino-3-(3,4-dichlorophenyl)propyl]oxy}pyridin-3-yl)-8,9-dimethoxybenzo[c]-2,7-naphthyridin-4-amine]
16 | 213 to 365 | 9 | 1040 |  | 210 |  | COCCN(C)C[C@H](N)COc1cncc(-c2cc3c(cnc4cc(OC)c(OC)cc43)c(N)n2)c1 [Ib-38, (2S)-3-{[5-(4-amino-8,9-dimethoxybenzo[c]-2,7-naphthyridin-2-yl)pyridin-3-yl]oxy}-N1-(2-methoxyethyl)-N1-methylpropane-1,2-diamine]
17 | 89 | 27 | 70 |  | < 32 |  | Nc1nc(-c2cncc(OC[C@@H](N)Cc3ccccc3)c2)cc2c1cnc1cc(/C=C/CCN3CCCC3)ccc12 [Ia-4, 2-(5-{[(2S)-2-amino-3-phenylpropyl]oxy}pyridin-3-yl)-8-[(1E)-4-pyrrolidin-1-ylbut-1-en-1-yl]benzo[c]-2,7-naphthyridin-4-amine]
18 | 97 | 2 |  |  |  |  | COc1cc2ncc3c(N)nc(-c4cncc(OC[C@@H](C)N)c4)cc3c2cc1OC [Ib-30, 2-(5-{[(2R)-2-aminopropyl]oxy}pyridin-3-yl)-8,9-dimethoxybenzo[c]-2,7-naphthyridin-4-amine]
19 | 65 | 8 | 179 |  | < 32 |  | COc1cc2ncc3c(N)nc(-c4cncc(OC[C@@H](N)CN5CCc6ccccc65)c4)cc3c2cc1OC [Ib-46, 2-(5-{[(2S)-2-amino-3-(2,3-dihydro-1H-indol-1-yl)propyl]oxy}pyridin-3-yl)-8,9-dimethoxybenzo[c]-2,7-naphthyridin-4-amine]
20 | 37 to 43 | 6 | 110 to 217 |  |  |  | COc1cc2ncc3c(N)nc(-c4cncc(OC[C@@H](N)CN(C)Cc5ccccc5)c4)cc3c2cc1OC [Ib-27, (2S)-3-{[5-(4-amino-8,9-dimethoxybenzo[c]-2,7-naphthyridin-2-yl)pyridin-3-yl]oxy}-N1-benzyl-N1-methylpropane-1,2-diamine]
21 | 30 to 133 | 4 | 223 |  | < 32 |  | COc1cc2ncc3c(N)nc(-c4cncc(OC[C@@H](N)CNc5cccc(F)c5)c4)cc3c2cc1OC [Ib-36, (2S)-3-{[5-(4-amino-8,9-dimethoxybenzo[c]-2,7-naphthyridin-2-yl)pyridin-3-yl]oxy}-N1-(3-fluorophenyl)propane-1,2-diamine]
